Our source for the IC50 and Ki values is ChEMBL document CHEMBL2029314, “Discovery of HIV fusion inhibitors targeting gp41 using a comprehensive α-helix mimetic library” (Bioorg Med Chem Lett, 2012).

Molecules are shown by their SMILES.

One test in a line: Inhibition of HIV1 envelope glycoprotein 41-mediated membrane fusion between virus-transfected human HL2/3 cells and human TZM-bl cells after 6 hrs by luciferase reporter assay. In kind it is cell-based. Conditions: Human immunodeficiency virus 1, TZM-bl. (In general: In a reporter assay the amount or activity of a reporter protein is the signal.)
A word on the IC50: it is the midpoint of a concentration-inhibition curve. A low value points to greater potency in that assay. `CC(C)C[C@H](NC(=O)c1ccc(NC(=O)[C@@H](N)Cc2c[nH]c3ccccc23)c(OCCc2c[nH]c3ccccc23)c1)C(=O)O` displayed an IC50 of 5 µM.
Same read-out and setting: the result for `COc1ccc(C[C@H](N)C(=O)Nc2ccc(C(=O)N[C@@H](Cc3c[nH]c4ccccc34)C(=O)O)cc2OCCc2c[nH]c3ccccc23)cc1` reads 8 µM; that for `NC(=O)C[C@H](N)C(=O)Nc1ccc(C(=O)N[C@@H](Cc2c[nH]c3ccccc23)C(=O)O)cc1OCCc1c[nH]c2ccccc12`, 6 µM; that for `CC(C)[C@H](NC(=O)c1ccc(N)c(OCc2ccc(O)cc2)c1)C(=O)O`, less than 30 µM.
The same measure, in the same setting: the result for `CC[C@H](NC(=O)c1ccc(N)c(OCc2ccc(O)cc2)c1)C(=O)O` reads less than 30 µM; that for `CSCC[C@H](NC(=O)c1ccc(N)c(OCc2ccc(O)cc2)c1)C(=O)O`, less than 30 µM.
For the compound `Nc1ccc(C(=O)N[C@@H](CO)C(=O)O)cc1OCc1ccc(O)cc1`, the half-inhibitory concentration (IC50) was less than 30 µM.
Compound `Nc1ccc(C(=O)N[C@@H](Cc2ccc(O)cc2)C(=O)O)cc1OCc1ccc(O)cc1` registered an IC50 of less than 30 µM.
The same measure, in the same setting: the result for `NC(=O)C[C@H](NC(=O)c1ccc(N)c(OCc2ccc(O)cc2)c1)C(=O)O` reads less than 30 µM; that for `Nc1ccc(C(=O)N[C@@H](Cc2ccc3ccccc3c2)C(=O)O)cc1OCc1ccc(O)cc1`, less than 30 µM; that for `CC[C@H](C)[C@H](NC(=O)c1ccc(N)c(OCCc2c[nH]c3ccccc23)c1)C(=O)O`, less than 30 µM.
The same measure, in the same setting: as for `CC(C)C[C@H](NC(=O)c1ccc(N)c(OCCc2c[nH]c3ccccc23)c1)C(=O)O`, the figure is less than 30 µM.
On the same count and under the same terms, the result for `Nc1ccc(C(=O)N[C@@H](CCc2ccccc2)C(=O)O)cc1OCCc1c[nH]c2ccccc12` reads less than 30 µM; that for `Nc1ccc(C(=O)N[C@@H](Cc2ccc(Cl)cc2)C(=O)O)cc1OCCc1c[nH]c2ccccc12`, less than 30 µM.
`Nc1ccc(C(=O)N[C@@H](Cc2c[nH]c3ccccc23)C(=O)O)cc1OCCc1c[nH]c2ccccc12` had an IC50 of less than 30 µM.
On to `CC[C@H](C)[C@H](NC(=O)c1ccc(N)c(OCc2ccc(Cl)cc2)c1)C(=O)O`, for which the IC50 is less than 30 µM.
The same measure, in the same setting: as for `Nc1ccc(C(=O)N[C@@H](Cc2ccc3ccccc3c2)C(=O)O)cc1OCc1ccc(Cl)cc1`, the figure is less than 30 µM; as for `CC[C@H](C)[C@H](NC(=O)c1ccc(N)c(OCc2ccc3ccccc3c2)c1)C(=O)O`, less than 30 µM.
Still for that read-out and setting: as for `CC(C)C[C@H](NC(=O)c1ccc(N)c(OCc2ccc3ccccc3c2)c1)C(=O)O`, the figure is less than 30 µM.
Still for that read-out and setting: the result for `Nc1ccc(C(=O)N[C@@H](CCc2ccccc2)C(=O)O)cc1OCc1ccc2ccccc2c1` reads less than 30 µM; that for `Nc1ccc(C(=O)N[C@@H](CC(=O)O)C(=O)O)cc1OCc1ccc2ccccc2c1`, less than 30 µM; that for `Nc1ccc(C(=O)N[C@@H](Cc2ccccc2)C(=O)O)cc1OCc1ccc2ccccc2c1`, less than 30 µM.
As for `Nc1ccc(C(=O)N[C@@H](Cc2ccc(O)cc2)C(=O)O)cc1OCc1ccc2ccccc2c1`, the IC50 is less than 30 µM.
The same measure, in the same setting: the result for `COc1ccc(C[C@H](NC(=O)c2ccc(N)c(OCc3ccc4ccccc4c3)c2)C(=O)O)cc1` reads less than 30 µM.

The nature of another test: Displacement of C18-Aib-lucifer yellow from HIV1 envelope glycoprotein gp41 Fe(env2.0)3 by fluorescence assay. Details: species or system Human immunodeficiency virus 1.
Conditions: not given
A word on the Ki: it is a dissociation constant, usually derived from enzyme kinetics or from competition with a known ligand. A lower Ki goes with higher affinity. `CSCC[C@H](N)C(=O)Nc1ccc(C(=O)N[C@@H](CCc2ccccc2)C(=O)O)cc1OCc1ccc(Cl)cc1`: the Ki is less than 25 µM.
Same read-out and setting: as for `N[C@@H](CCc1ccccc1)C(=O)Nc1ccc(C(=O)N[C@@H](CCc2ccccc2)C(=O)O)cc1OCc1ccc(Cl)cc1`, the figure is less than 25 µM.
On the same count and under the same terms, as for `N[C@@H](Cc1ccc(O)cc1)C(=O)Nc1ccc(C(=O)N[C@@H](CCc2ccccc2)C(=O)O)cc1OCc1ccc(Cl)cc1`, the figure is less than 25 µM; as for `N[C@@H](Cc1c[nH]c2ccccc12)C(=O)Nc1ccc(C(=O)N[C@@H](CCc2ccccc2)C(=O)O)cc1OCc1ccc(Cl)cc1`, less than 25 µM.
Same read-out and setting: the result for `N[C@@H](CC(=O)O)C(=O)Nc1ccc(C(=O)N[C@@H](Cc2c[nH]c3ccccc23)C(=O)O)cc1OCCc1c[nH]c2ccccc12` reads less than 10 µM; that for `N[C@@H](CC(=O)O)C(=O)Nc1ccc(C(=O)N[C@H](CC(=O)O)Cc2c[nH]c3ccccc23)cc1OCCc1c[nH]c2ccccc12`, 0.6 µM.
Consider `CSCC[C@H](N)C(=O)Nc1ccc(C(=O)N[C@@H](Cc2c[nH]c3ccccc23)C(=O)O)cc1OCCc1c[nH]c2ccccc12`, for which the Ki was less than 10 µM.
Still for that read-out and setting: as for `N[C@@H](CC(=O)O)C(=O)Nc1ccc(C(=O)NCCc2c[nH]c3ccccc23)cc1OCCc1c[nH]c2ccccc12`, the figure is 18 µM; as for `CC[C@H](C)[C@H](N)C(=O)Nc1ccc(C(=O)N[C@@H](CCc2ccccc2)C(=O)O)cc1OCc1ccc(Cl)cc1`, less than 25 µM.
As for `N[C@@H](Cc1ccc2ccccc2c1)C(=O)Nc1ccc(C(=O)N[C@@H](Cc2c[nH]c3ccccc23)C(=O)O)cc1OCCc1c[nH]c2ccccc12`, the Ki was less than 10 µM.
The same measure, in the same setting: as for `CSCC[C@H](N)C(=O)Nc1ccc(C(=O)N[C@@H](CCc2ccccc2)C(=O)O)cc1OCc1ccc2ccccc2c1`, the figure is less than 10 µM; as for `CC(C)C[C@H](NC(=O)c1ccc(NC(=O)[C@@H](N)CO)c(OCCc2c[nH]c3ccccc23)c1)C(=O)O`, less than 10 µM.
Same read-out and setting: as for `CC(C)C[C@H](NC(=O)c1ccc(NC(=O)[C@@H](N)CC(=O)O)c(OCCc2c[nH]c3ccccc23)c1)C(=O)O`, the figure is less than 10 µM; as for `CC(C)C[C@H](NC(=O)c1ccc(NC(=O)[C@@H](N)Cc2ccc3ccccc3c2)c(OCCc2c[nH]c3ccccc23)c1)C(=O)O`, less than 10 µM; as for `CC(C)C[C@H](NC(=O)c1ccc(NC(=O)[C@@H](N)CC(N)=O)c(OCCc2c[nH]c3ccccc23)c1)C(=O)O`, less than 10 µM.
The same measure, in the same setting: the result for `CC(C)C[C@H](N)C(=O)Nc1ccc(C(=O)N[C@@H](CCc2ccccc2)C(=O)O)cc1OCc1ccc2ccccc2c1` reads less than 10 µM.
For the compound `CC[C@H](C)[C@H](N)C(=O)Nc1ccc(C(=O)N[C@@H](CCc2ccccc2)C(=O)O)cc1OCc1ccc2ccccc2c1`, the Ki is less than 10 µM.
Still for that read-out and setting: the result for `N[C@@H](CC(=O)O)C(=O)Nc1ccc(C(=O)N[C@@H](CCc2ccccc2)C(=O)O)cc1OCc1ccc2ccccc2c1` reads less than 10 µM; that for `N[C@@H](Cc1ccc(O)cc1)C(=O)Nc1ccc(C(=O)N[C@@H](CCc2ccccc2)C(=O)O)cc1OCc1ccc2ccccc2c1`, less than 10 µM.
The same measure, in the same setting: the result for `N[C@@H](Cc1c[nH]c2ccccc12)C(=O)Nc1ccc(C(=O)N[C@@H](CCc2ccccc2)C(=O)O)cc1OCc1ccc2ccccc2c1` reads less than 10 µM.
On the same count and under the same terms, as for `N[C@@H](CCc1ccccc1)C(=O)Nc1ccc(C(=O)N[C@@H](CCc2ccccc2)C(=O)O)cc1OCc1ccc2ccccc2c1`, the figure is less than 10 µM; as for `C[C@H](N)C(=O)Nc1ccc(C(=O)N[C@@H](Cc2c[nH]c3ccccc23)C(=O)O)cc1OCCc1c[nH]c2ccccc12`, less than 10 µM; as for `CC[C@H](N)C(=O)Nc1ccc(C(=O)N[C@@H](Cc2c[nH]c3ccccc23)C(=O)O)cc1OCCc1c[nH]c2ccccc12`, less than 10 µM.
For `CC(C)[C@H](N)C(=O)Nc1ccc(C(=O)N[C@@H](Cc2c[nH]c3ccccc23)C(=O)O)cc1OCCc1c[nH]c2ccccc12`, the Ki was less than 10 µM.
Same read-out and setting: the result for `CC(C)C[C@H](N)C(=O)Nc1ccc(C(=O)N[C@@H](Cc2c[nH]c3ccccc23)C(=O)O)cc1OCCc1c[nH]c2ccccc12` reads less than 10 µM; that for `CC[C@H](C)[C@H](N)C(=O)Nc1ccc(C(=O)N[C@@H](Cc2c[nH]c3ccccc23)C(=O)O)cc1OCCc1c[nH]c2ccccc12`, less than 10 µM; that for `N[C@@H](CO)C(=O)Nc1ccc(C(=O)N[C@@H](Cc2c[nH]c3ccccc23)C(=O)O)cc1OCCc1c[nH]c2ccccc12`, less than 10 µM.
Same read-out and setting: as for `C[C@@H](O)[C@H](N)C(=O)Nc1ccc(C(=O)N[C@@H](Cc2c[nH]c3ccccc23)C(=O)O)cc1OCCc1c[nH]c2ccccc12`, the figure is less than 10 µM; as for `N[C@@H](Cc1ccccc1)C(=O)Nc1ccc(C(=O)N[C@@H](Cc2c[nH]c3ccccc23)C(=O)O)cc1OCCc1c[nH]c2ccccc12`, less than 10 µM.
Same read-out and setting: the result for `N[C@@H](Cc1ccc(O)cc1)C(=O)Nc1ccc(C(=O)N[C@@H](Cc2c[nH]c3ccccc23)C(=O)O)cc1OCCc1c[nH]c2ccccc12` reads less than 10 µM; that for `COc1ccc(C[C@H](N)C(=O)Nc2ccc(C(=O)N[C@@H](Cc3c[nH]c4ccccc34)C(=O)O)cc2OCCc2c[nH]c3ccccc23)cc1`, 0.7 µM.
Take `N[C@@H](Cc1c[nH]c2ccccc12)C(=O)Nc1ccc(C(=O)N[C@@H](Cc2c[nH]c3ccccc23)C(=O)O)cc1OCCc1c[nH]c2ccccc12`: the Ki is less than 10 µM.
The same measure, in the same setting: as for `NC(=O)C[C@H](N)C(=O)Nc1ccc(C(=O)N[C@@H](Cc2c[nH]c3ccccc23)C(=O)O)cc1OCCc1c[nH]c2ccccc12`, the figure is 0.8 µM; as for `COC(=O)[C@H](Cc1c[nH]c2ccccc12)NC(=O)c1ccc(NC(=O)[C@@H](N)CC(=O)O)c(OCCc2c[nH]c3ccccc23)c1`, 21 µM; as for `O=C(O)CCC(=O)Nc1ccc(C(=O)N[C@@H](Cc2c[nH]c3ccccc23)C(=O)O)cc1OCCc1c[nH]c2ccccc12`, 0.6 µM.
As to `COc1ccc(C[C@H](N)C(=O)Nc2ccc(C(=O)N[C@H](CC(=O)O)Cc3c[nH]c4ccccc34)cc2OCCc2c[nH]c3ccccc23)cc1`, the Ki turned out to be 50 µM.
The same measure, in the same setting: as for `COc1ccc(C[C@H](N)C(=O)Nc2ccc(C(=O)N[C@H](CCC(=O)O)Cc3c[nH]c4ccccc34)cc2OCCc2c[nH]c3ccccc23)cc1`, the figure is 100 µM.
